Data as given in patent publication US10251395B2, “Substituted furano-/thienocycloalkylamino-2-pyrimidine derivatives and use thereof for controlling undesired plant growth” (Bayer CropScience Aktiengesellschaft, priority 2015, dated 2019).

Key:
Polygonum convolvulus [1] = assay: Post-emergence herbicidal effect; format: in vivo; conditions: assessed visually after about 3 weeks vs untreated controls
Method in brief: (§1)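 Seedlings at the one-leaf stage, about 2 to 3 weeks old, are sprayed on their foliage with compound suspended or emulsified in water containing 0.2% wetting agent. After roughly 3 weeks in the greenhouse, injury is estimated visually on a 0 to 100% scale.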

Veronica persica [2] = assay: Post-emergence herbicidal effect; format: in vivo; conditions: assessed visually after about 3 weeks vs untreated controls
Method in brief: as §1

Viola tricolor [3] = assay: Post-emergence herbicidal effect; format: in vivo; conditions: assessed visually after about 3 weeks vs untreated controls
Method in brief: as §1

Lolium multiflorum [4] = assay: Post-emergence herbicidal effect; format: in vivo; conditions: assessed visually after about 3 weeks vs untreated controls
Method in brief: as §1

Abutilon theophrasti [5] = assay: Post-emergence herbicidal effect; format: in vivo; conditions: assessed visually after about 3 weeks vs untreated controls
Method in brief: as §1

Setaria viridis [6] = assay: Post-emergence herbicidal effect; format: in vivo; conditions: assessed visually after about 3 weeks vs untreated controls
Method in brief: as §1

Echinochloa crus-galli [7] = assay: Post-emergence herbicidal effect; format: in vivo; conditions: assessed visually after about 3 weeks vs untreated controls
Method in brief: as §1

Alopecurus myosuroides [8] = assay: Post-emergence herbicidal effect; format: in vivo; conditions: assessed visually after about 3 weeks vs untreated controls
Method in brief: as §1

Ipomoea purpurea = assay: Post-emergence herbicidal effect; format: in vivo; conditions: assessed visually after about 3 weeks vs untreated controls
Method in brief: as §1

Amaranthus retroflexus [9] = assay: Post-emergence herbicidal effect; format: in vivo; conditions: assessed visually after about 3 weeks vs untreated controls
Method in brief: as §1

Stellaria media [10] = assay: Post-emergence herbicidal effect; format: in vivo; conditions: assessed visually after about 3 weeks vs untreated controls
Method in brief: as §1

logP (HCOOH) = format: physicochemical; conditions: HCOOH
Text: Table 2 (physicochemical characterization of selected synthesis examples)

Polygonum convolvulus [11] = assay: Pre-emergence herbicidal effect; format: in vivo; conditions: scored visually after 3 weeks
Method in brief: (§2)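 Pre-em soil-surface spray; sandy loam, seeds covered with soil. WP/EC, aq. suspension/emulsion, 600–800 L/ha, +0.2% wetting agent. GH 3 wk; visual % activity vs untreated (100% = dead).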

Matricaria inodora [12] = assay: Pre-emergence herbicidal effect; format: in vivo; conditions: scored visually after 3 weeks
Method in brief: as §2

Veronica persica [13] = assay: Pre-emergence herbicidal effect; format: in vivo; conditions: scored visually after 3 weeks
Method in brief: as §2

Viola tricolor [14] = assay: Pre-emergence herbicidal effect; format: in vivo; conditions: scored visually after 3 weeks
Method in brief: as §2

Lolium multiflorum [15] = assay: Pre-emergence herbicidal effect; format: in vivo; conditions: scored visually after 3 weeks
Method in brief: as §2

Abutilon theophrasti [16] = assay: Pre-emergence herbicidal effect; format: in vivo; conditions: scored visually after 3 weeks
Method in brief: as §2

Setaria viridis [17] = assay: Pre-emergence herbicidal effect; format: in vivo; conditions: scored visually after 3 weeks
Method in brief: as §2

Echinochloa crus-galli [18] = assay: Pre-emergence herbicidal effect; format: in vivo; conditions: scored visually after 3 weeks
Method in brief: as §2

Alopecurus myosuroides [19] = assay: Pre-emergence herbicidal effect; format: in vivo; conditions: scored visually after 3 weeks
Method in brief: as §2

Avena fatua = assay: Pre-emergence herbicidal effect; format: in vivo; conditions: Dosage 320 g/ha, scored visually after 3 weeks
Method in brief: as §2

Amaranthus retroflexus [20] = assay: Pre-emergence herbicidal effect; format: in vivo; conditions: scored visually after 3 weeks
Method in brief: as §2

Stellaria media [21] = assay: Pre-emergence herbicidal effect; format: in vivo; conditions: scored visually after 3 weeks
Method in brief: as §2

Matricaria inodora [22] = assay: Post-emergence herbicidal effect; format: in vivo; conditions: 320 g/ha, assessed visually after about 3 weeks vs untreated controls
Method in brief: as §1

Cyperus esculentus = assay: Pre-emergence herbicidal effect; format: in vivo; conditions: Dosage 320 g/ha, scored visually after 3 weeks
Method in brief: as §2

## Cc1cc2c(s1)C(Nc1ncc(C(F)(F)F)c(N)n1)CCC2 (racemic) [compound 55]
Polygonum convolvulus [1]; 80 g/ha
  post-emergence efficacy POLCO: 90%
Polygonum convolvulus [1]; 320 g/ha
  post-emergence efficacy POLCO: 90%
Veronica persica [2]; 80 g/ha
  post-emergence efficacy VERPE: 90%
Veronica persica [2]; 320 g/ha
  post-emergence efficacy VERPE: 100%
Viola tricolor [3]; 80 g/ha
  post-emergence efficacy VIOTR: 90%
Viola tricolor [3]; 320 g/ha
  post-emergence efficacy VIOTR: 100%
Lolium multiflorum [4]; 80 g/ha
  post-emergence efficacy LOLMU: 80%
Lolium multiflorum [4]; 320 g/ha
  post-emergence efficacy LOLMU: 90%
Abutilon theophrasti [5]; 80 g/ha
  post-emergence efficacy ABUTH: 90%
Abutilon theophrasti [5]; 320 g/ha
  post-emergence efficacy ABUTH: 90%
Setaria viridis [6]; 80 g/ha
  post-emergence efficacy SETVI: 90%
Setaria viridis [6]; 320 g/ha
  post-emergence efficacy SETVI: 90%
Echinochloa crus-galli [7]; 80 g/ha
  post-emergence efficacy ECHCG: 100%
Echinochloa crus-galli [7]; 320 g/ha
  post-emergence efficacy ECHCG: 100%
Alopecurus myosuroides [8]; 80 g/ha
  post-emergence efficacy ALOMY: 90%
Alopecurus myosuroides [8]; 320 g/ha
  post-emergence efficacy ALOMY: 90%
Ipomoea purpurea; 80 g/ha
  post-emergence efficacy PHBPU: 100%
Ipomoea purpurea; 320 g/ha
  post-emergence efficacy PHBPU: 100%
Amaranthus retroflexus [9]; 80 g/ha
  post-emergence efficacy AMARE: 90%
Amaranthus retroflexus [9]; 320 g/ha
  post-emergence efficacy AMARE: 100%
Stellaria media [10]; 80 g/ha
  post-emergence efficacy STEME: 100%
Stellaria media [10]; 320 g/ha
  post-emergence efficacy STEME: 100%
logP (HCOOH)
  logP (HCOOH): oily; logP (HCOOH): 2.46; 1H NMR (CDCl3, 400 MHZ, δ in ppm): 1.85-2.00 (m, 3H,
Polygonum convolvulus [11]; Dosage 320 g/ha
  POLCO pre-emergence efficacy (herbicidal activity): 90%
Matricaria inodora [12]; Dosage 80 g/ha
  MATIN pre-emergence efficacy (herbicidal activity): 100%
Matricaria inodora [12]; Dosage 320 g/ha
  MATIN pre-emergence efficacy (herbicidal activity): 100%
Veronica persica [13]; Dosage 80 g/ha
  VERPE pre-emergence efficacy (herbicidal activity): 100%
Veronica persica [13]; Dosage 320 g/ha
  VERPE pre-emergence efficacy (herbicidal activity): 100%
Viola tricolor [14]; Dosage 80 g/ha
  VIOTR pre-emergence efficacy (herbicidal activity): 100%
Viola tricolor [14]; Dosage 320 g/ha
  VIOTR pre-emergence efficacy (herbicidal activity): 100%
Lolium multiflorum [15]; Dosage 320 g/ha
  LOLMU pre-emergence efficacy (herbicidal activity): 100%
Abutilon theophrasti [16]; Dosage 80 g/ha
  ABUTH pre-emergence efficacy (herbicidal activity): 100%
Abutilon theophrasti [16]; Dosage 320 g/ha
  ABUTH pre-emergence efficacy (herbicidal activity): 100%
Setaria viridis [17]; Dosage 80 g/ha
  SETVI pre-emergence efficacy (herbicidal activity): 100%
Setaria viridis [17]; Dosage 320 g/ha
  SETVI pre-emergence efficacy (herbicidal activity): 100%
Echinochloa crus-galli [18]; Dosage 80 g/ha
  ECHCG pre-emergence efficacy (herbicidal activity): 100%
Echinochloa crus-galli [18]; Dosage 320 g/ha
  ECHCG pre-emergence efficacy (herbicidal activity): 100%
Alopecurus myosuroides [19]; Dosage 80 g/ha
  ALOMY pre-emergence efficacy (herbicidal activity): 90%
Alopecurus myosuroides [19]; Dosage 320 g/ha
  ALOMY pre-emergence efficacy (herbicidal activity): 100%
Avena fatua
  AVEFA pre-emergence efficacy (herbicidal activity): 100%
Amaranthus retroflexus [20]; Dosage 80 g/ha
  AMARE pre-emergence efficacy (herbicidal activity): 100%
Amaranthus retroflexus [20]; Dosage 320 g/ha
  AMARE pre-emergence efficacy (herbicidal activity): 100%
Stellaria media [21]; Dosage 80 g/ha
  STEME pre-emergence efficacy (herbicidal activity): 100%
Stellaria media [21]; Dosage 320 g/ha
  STEME pre-emergence efficacy (herbicidal activity): 100%

## Cc1cc2c(s1)CCCC2Nc1ncc2c(n1)CCCC2=O (racemic) [compound 9]
Matricaria inodora [22]
  post-emergence efficacy MATIN: 80%
Veronica persica [2]; 80 g/ha
  post-emergence efficacy VERPE: 80%
Veronica persica [2]; 320 g/ha
  post-emergence efficacy VERPE: 90%
Viola tricolor [3]; 80 g/ha
  post-emergence efficacy VIOTR: 80%
Viola tricolor [3]; 320 g/ha
  post-emergence efficacy VIOTR: 90%
Lolium multiflorum [4]; 320 g/ha
  post-emergence efficacy LOLMU: 80%
Abutilon theophrasti [5]; 320 g/ha
  post-emergence efficacy ABUTH: 80%
Echinochloa crus-galli [7]; 80 g/ha
  post-emergence efficacy ECHCG: 80%
Echinochloa crus-galli [7]; 320 g/ha
  post-emergence efficacy ECHCG: 100%
Alopecurus myosuroides [8]; 320 g/ha
  post-emergence efficacy ALOMY: 80%
Amaranthus retroflexus [9]; 80 g/ha
  post-emergence efficacy AMARE: 80%
Amaranthus retroflexus [9]; 320 g/ha
  post-emergence efficacy AMARE: 90%
Stellaria media [10]; 320 g/ha
  post-emergence efficacy STEME: 90%
Polygonum convolvulus [11]; Dosage 80 g/ha
  POLCO pre-emergence efficacy (herbicidal activity): 100%
Polygonum convolvulus [11]; Dosage 320 g/ha
  POLCO pre-emergence efficacy (herbicidal activity): 100%
Matricaria inodora [12]; Dosage 80 g/ha
  MATIN pre-emergence efficacy (herbicidal activity): 100%
Matricaria inodora [12]; Dosage 320 g/ha
  MATIN pre-emergence efficacy (herbicidal activity): 100%
Veronica persica [13]; Dosage 80 g/ha
  VERPE pre-emergence efficacy (herbicidal activity): 100%
Veronica persica [13]; Dosage 320 g/ha
  VERPE pre-emergence efficacy (herbicidal activity): 100%
Viola tricolor [14]; Dosage 80 g/ha
  VIOTR pre-emergence efficacy (herbicidal activity): 90%
Viola tricolor [14]; Dosage 320 g/ha
  VIOTR pre-emergence efficacy (herbicidal activity): 100%
Abutilon theophrasti [16]; Dosage 80 g/ha
  ABUTH pre-emergence efficacy (herbicidal activity): 100%
Abutilon theophrasti [16]; Dosage 320 g/ha
  ABUTH pre-emergence efficacy (herbicidal activity): 100%
Setaria viridis [17]; Dosage 80 g/ha
  SETVI pre-emergence efficacy (herbicidal activity): 80%
Setaria viridis [17]; Dosage 320 g/ha
  SETVI pre-emergence efficacy (herbicidal activity): 100%
Echinochloa crus-galli [18]; Dosage 80 g/ha
  ECHCG pre-emergence efficacy (herbicidal activity): 100%
Echinochloa crus-galli [18]; Dosage 320 g/ha
  ECHCG pre-emergence efficacy (herbicidal activity): 100%
Amaranthus retroflexus [20]; Dosage 80 g/ha
  AMARE pre-emergence efficacy (herbicidal activity): 100%
Amaranthus retroflexus [20]; Dosage 320 g/ha
  AMARE pre-emergence efficacy (herbicidal activity): 100%
Stellaria media [21]; Dosage 80 g/ha
  STEME pre-emergence efficacy (herbicidal activity): 100%
Stellaria media [21]; Dosage 320 g/ha
  STEME pre-emergence efficacy (herbicidal activity): 100%

## N#Cc1cc2c(s1)C(Nc1ncc(C(F)(F)F)c(N)n1)CCC2 (racemic) [compound 285]
Matricaria inodora [22]
  post-emergence efficacy MATIN: 80%
Veronica persica [2]; 80 g/ha
  post-emergence efficacy VERPE: 60%
Veronica persica [2]; 320 g/ha
  post-emergence efficacy VERPE: 80%
Viola tricolor [3]; 80 g/ha
  post-emergence efficacy VIOTR: 80%
Viola tricolor [3]; 320 g/ha
  post-emergence efficacy VIOTR: 100%
Ipomoea purpurea; 320 g/ha
  post-emergence efficacy PHBPU: 60%
Amaranthus retroflexus [9]; 80 g/ha
  post-emergence efficacy AMARE: 100%
Amaranthus retroflexus [9]; 320 g/ha
  post-emergence efficacy AMARE: 100%
Stellaria media [10]; 80 g/ha
  post-emergence efficacy STEME: 90%
Stellaria media [10]; 320 g/ha
  post-emergence efficacy STEME: 100%
Polygonum convolvulus [11]; Dosage 320 g/ha
  POLCO pre-emergence efficacy (herbicidal activity): 100%
Matricaria inodora [12]; Dosage 80 g/ha
  MATIN pre-emergence efficacy (herbicidal activity): 100%
Matricaria inodora [12]; Dosage 320 g/ha
  MATIN pre-emergence efficacy (herbicidal activity): 100%
Cyperus esculentus
  CYPES pre-emergence efficacy (herbicidal activity): 50%
Veronica persica [13]; Dosage 80 g/ha
  VERPE pre-emergence efficacy (herbicidal activity): 100%
Veronica persica [13]; Dosage 320 g/ha
  VERPE pre-emergence efficacy (herbicidal activity): 100%
Viola tricolor [14]; Dosage 80 g/ha
  VIOTR pre-emergence efficacy (herbicidal activity): 100%
Viola tricolor [14]; Dosage 320 g/ha
  VIOTR pre-emergence efficacy (herbicidal activity): 100%
Lolium multiflorum [15]; Dosage 80 g/ha
  LOLMU pre-emergence efficacy (herbicidal activity): 80%
Lolium multiflorum [15]; Dosage 320 g/ha
  LOLMU pre-emergence efficacy (herbicidal activity): 90%
Setaria viridis [17]; Dosage 80 g/ha
  SETVI pre-emergence efficacy (herbicidal activity): 70%
Setaria viridis [17]; Dosage 320 g/ha
  SETVI pre-emergence efficacy (herbicidal activity): 100%
Echinochloa crus-galli [18]; Dosage 80 g/ha
  ECHCG pre-emergence efficacy (herbicidal activity): 60%
Echinochloa crus-galli [18]; Dosage 320 g/ha
  ECHCG pre-emergence efficacy (herbicidal activity): 100%
Alopecurus myosuroides [19]; Dosage 80 g/ha
  ALOMY pre-emergence efficacy (herbicidal activity): 50%
Alopecurus myosuroides [19]; Dosage 320 g/ha
  ALOMY pre-emergence efficacy (herbicidal activity): 60%
Amaranthus retroflexus [20]; Dosage 80 g/ha
  AMARE pre-emergence efficacy (herbicidal activity): 100%
Amaranthus retroflexus [20]; Dosage 320 g/ha
  AMARE pre-emergence efficacy (herbicidal activity): 100%
Stellaria media [21]; Dosage 80 g/ha
  STEME pre-emergence efficacy (herbicidal activity): 100%
Stellaria media [21]; Dosage 320 g/ha
  STEME pre-emergence efficacy (herbicidal activity): 100%
